Data published in ChEMBL document CHEMBL4819078, “Bioactive Dimeric Tetrahydroxanthones with 2,2'- and 4,4'-Axial Linkages from the Entomopathogenic Fungus Aschersonia confluens” (J Nat Prod, 2021).
≈ marks a conversion by molar mass, not a printed value. Calls of active or inactive are those of the source. No cut-off for these calls is given here.

How the values were obtained:
[1] = test system: Plasmodium falciparum; assay: Antimalarial activity against multi drug-resistant Plasmodium falciparum K1 infected in human erythrocytes assessed as inhibition of [G-3H]hypoxanthine uptake preincubated for 24 hrs followed by [G-3H]hypoxanthine addition and measured after 18 hrs by scintillation counting method; type: functional, organism-based
[2] = test system: Mycobacterium tuberculosis; assay: Antitubercular activity against Mycobacterium tuberculosis H37Ra ATCC 25177 assessed as reduction in bacterial growth after 6 to 8 days by green fluorescent protein microplate assay; type: functional; conditions: time 6-8 day
[3] = test system: Vero; assay: Cytotoxicity against African green monkey Vero cells by green fluorescent protein microplate assay; type: cell-based; conditions: Chlorocebus sabaeus
[4] = test system: Candida albicans; assay: Antifungal activity against Candida albicans ATCC 90028 by resazurin microplate assay; type: functional
[5] = test system: Bacillus cereus; assay: Antibacterial activity against Bacillus cereus ATCC 11778 by resazurin microplate assay; type: functional
[6] = test system: Enterococcus faecium; assay: Antibacterial activity against Enterococcus faecium ATCC 51559 by CLSI based microplate assay; type: functional
[7] = test system: Acinetobacter baumannii; assay: Antibacterial activity against Acinetobacter baumannii ATCC 19606 by CLSI based microplate assay; type: functional; conditions: ATCC 19606 = CIP 70.34 = JCM 6841
[8] = test system: Escherichia coli; assay: Antibacterial activity against Escherichia coli ATCC 25922 by CLSI based microplate assay; type: functional
[9] = test system: Klebsiella pneumoniae; assay: Antibacterial activity against Klebsiella pneumoniae ATCC 700603 by CLSI based microplate assay; type: functional
[10] = test system: Pseudomonas aeruginosa; assay: Antibacterial activity against Pseudomonas aeruginosa ATCC 15692 by CLSI based microplate assay; type: functional
[11] = test system: MCF7; assay: cells; conditions: Homo sapiens
Description: Cytotoxicity against human MCF7 cells assessed as reduction in cell viability by resazurin based fluorescence assay

[12] = test system: KB; assay: cells; conditions: Homo sapiens
Description: Cytotoxicity against human KB cells assessed as reduction in cell viability by resazurin based fluorescence assay

[13] = test system: NCI-H187; assay: cells; conditions: Homo sapiens
Description: Cytotoxicity against human NCI-H187 cells assessed as reduction in cell viability by resazurin based fluorescence assay

| Structure (SMILES) | IC50 [1] [nM] | MIC [2] [µg/mL] | IC50 [3] [nM] | Activity [4] | Activity [5] | MIC [6] [µg/mL] | Activity [7] | Activity [8] | Activity [9] | Activity [10] | IC50 [11] [µM] | IC50 [12] [µM] | IC50 [13] [nM] | other results |
| --- | --- | --- | --- | --- | --- | --- | --- | --- | --- | --- | --- | --- | --- | --- |
| CO[C@H]1CC=C2C(=O)c3c(O)cc(C)c(-c4c(C)cc(O)c5c4O[C@]4(C)C(=CC[C@H](OC)[C@H]4O)C5=O)c3O[C@@]2(C)[C@@H]1O | 900 | 6.3 (≈ 10.9 µM) | 1100 | inactive | inactive | > 50 | inactive | inactive | inactive | inactive | 7.5 | 1.5 | 800 |  |
| CC1COc2c(N3CCN(C)CC3)c(F)cc3c(=O)c(C(=O)O)cn1c23 (configuration not stated) [OFLOXACIN] |  | 0.4 (≈ 1.11 µM) |  |  |  |  |  |  |  |  |  |  |  |  |
| CO[C@H]1/C=C/O[C@@]2(C)Oc3c(C)c(O)c4c(O)c(c(/C=N/N5CCN(C)CC5)c(O)c4c3C2=O)NC(=O)/C(C)=C\C=C\[C@H](C)[C@H](O)[C@@H](C)[C@@H](O)[C@@H](C)[C@H](OC(C)=O)[C@@H]1C [RIFAMPIN] |  |  |  |  |  | 3.1 (≈ 3.77 µM) |  |  |  |  |  |  |  | MIC [7]: 3.1 µg/mL (≈ 3.77 µM); MIC [8]: 6.3 µg/mL (≈ 7.66 µM); MIC [9]: 25 µg/mL (≈ 30.4 µM) |
| NNC(=O)c1ccncc1 [ISONIAZID] |  | 0.1 (≈ 0.729 µM) |  |  |  |  |  |  |  |  |  |  |  |  |
| CC[C@@H](CO)NCCN[C@@H](CC)CO [ETHAMBUTOL] |  | 0.9 (≈ 4.4 µM) |  |  |  |  |  |  |  |  |  |  |  |  |
| CO[C@H]1[C@H](O)C=C2C(=O)c3c(O)cc(C)c(-c4c(C)cc(O)c5c4O[C@]4(C)C(=CC[C@H](OC)[C@H]4O)C5=O)c3O[C@@]2(C)[C@@H]1O | 1700 | 25 (≈ 42 µM) | 2200 | inactive | inactive | > 50 | inactive | inactive | inactive | inactive | 63.2 | 63.5 | 1000 |  |
| Cc1c2ccncc2c(C)c2c1[nH]c1ccccc12 [ELLIPTECINE] |  |  | 7900 |  |  |  |  |  |  |  |  | 6.1 | 9100 |  |
| CO[C@H]1CC=C2C(=O)c3c(cc(C)c(-c4c(C)cc5c(c4O)C(=O)C4=CC[C@H](OC)[C@@H](O)[C@]4(C)O5)c3O)O[C@@]2(C)[C@@H]1O [ASCHERXANTHONE A] | 1000 | 6.3 (≈ 10.9 µM) | 900 | inactive | inactive | > 50 | inactive | inactive | inactive | inactive | 16.8 | 3.2 | 500 |  |
| CO[C@H]1CC=C2C(=O)c3c(cc(C)c(-c4c(C)cc5c(c4O)C(=O)C4=CC[C@H](OC)[C@H](O)[C@]4(C)O5)c3O)O[C@@]2(C)[C@@H]1O | 1000 | 25 (≈ 43.2 µM) | 2400 | inactive | inactive | 12.5 (≈ 21.6 µM) | inactive | inactive | inactive | inactive | > 86.4 | 3.4 | 1200 |  |
| CO[C@H]1CC=C2C(=O)c3c(cc(C)c(-c4c(C)cc5c(c4O)C(=O)C4=CC[C@H](OC)[C@H](OC(C)=O)[C@]4(C)O5)c3O)O[C@@]2(C)[C@@H]1O | 1400 | 6.3 (≈ 10.2 µM) | 900 | inactive | inactive | 12.5 (≈ 20.1 µM) | inactive | inactive | inactive | inactive | 7.2 | 1.5 | 1000 |  |
| CN[C@H](CC(C)C)C(=O)N[C@H]1C(=O)N[C@@H](CC(N)=O)C(=O)N[C@H]2C(=O)N[C@H]3C(=O)N[C@H](C(=O)N[C@H](C(=O)O)c4cc(O)cc(O)c4-c4cc3ccc4O)[C@H](O)c3ccc(c(Cl)c3)Oc3cc2cc(c3O[C@@H]2O[C@H](CO)[C@@H](O)[C@H](O)[C@H]2O[C@H]2C[C@](C)(N)[C@H](O)[C@H](C)O2)Oc2ccc(cc2Cl)[C@H]1O [VANCOMYCIN] |  |  |  |  |  |  |  |  |  |  |  |  |  | MIC [5]: 2 µg/mL (≈ 1.38 µM) |
| CO[C@H]1[C@H](O)C=C2C(=O)c3c(cc(C)c(-c4c(C)cc5c(c4O)C(=O)C4=CC[C@H](OC)[C@@H](O)[C@]4(C)O5)c3O)O[C@@]2(C)[C@@H]1O | 600 | 6.3 (≈ 10.6 µM) | 1200 | inactive | inactive | > 50 | inactive | inactive | inactive | inactive | 12.8 | 1.3 | 1000 |  |
| O=C(N[C@H](CO)[C@H](O)c1ccc([N+](=O)[O-])cc1)C(Cl)Cl [CHLORAMPHENICOL] |  |  |  |  |  |  |  |  |  |  |  |  |  | MIC [10]: 8 µg/mL (≈ 24.8 µM) |
| COC1=C[C@]2(C)Oc3c(c(O)cc(C)c3-c3c(C)cc(O)c4c3O[C@]3(C)C(=CC[C@H](OC)[C@H]3O)C4=O)C(=O)[C@@H]2CC1=O | 4800 | 12.5 (≈ 21.7 µM) | 6100 | inactive | inactive | > 50 | inactive | inactive | inactive | inactive | 17.6 | 9.7 | 3500 |  |
| O[C@@H](c1cc(C(F)(F)F)nc2c(C(F)(F)F)cccc12)[C@H]1CCCCN1 [(S,R)-MEFLOQUINE] | 70 |  |  |  |  |  |  |  |  |  |  |  |  |  |
| CO[C@H]1CC=C2C(=O)c3c(O)cc(C)c(-c4c(C)cc(O)c5c4O[C@]4(C)C(=CC[C@H](OC)[C@@H]4O)C5=O)c3O[C@@]2(C)[C@@H]1O | 2600 | 6.3 (≈ 10.9 µM) | 4200 | inactive | inactive | > 50 | inactive | inactive | inactive | inactive | 27.9 | 4.7 | 2800 |  |
| CN[C@@H]1[C@H](O[C@H]2[C@H](O[C@H]3[C@H](O)[C@@H](O)[C@H](N=C(N)N)[C@@H](O)[C@@H]3N=C(N)N)O[C@@H](C)[C@]2(O)C=O)O[C@@H](CO)[C@H](O)[C@H]1O [STREPTOMYCIN] |  | 0.3 (≈ 0.516 µM) |  |  |  |  |  |  |  |  |  |  |  |  |
| C[C@@H]1[C@H](O)[C@@H](C)/C=C/C=C/C=C/C=C/C=C/C=C/C=C/[C@H](O[C@@H]2O[C@H](C)[C@@H](O)[C@H](N)[C@@H]2O)C[C@@H]2O[C@](O)(C[C@@H](O)C[C@@H](O)[C@H](O)CC[C@@H](O)C[C@@H](O)CC(=O)O[C@H]1C)C[C@H](O)[C@H]2C(=O)O [AMPHOTERICIN B] |  |  |  |  |  |  |  |  |  |  |  |  |  | MIC [4]: 0.1 µg/mL (≈ 0.108 µM) |
| CC[C@H]1OC(=O)[C@H](C)[C@@H](O[C@H]2C[C@@](C)(OC)[C@@H](O)[C@H](C)O2)[C@H](C)[C@@H](O[C@@H]2O[C@H](C)C[C@H](N(C)C)[C@H]2O)[C@](C)(O)C[C@@H](C)C(=O)[C@H](C)[C@@H](O)[C@]1(C)O [ERYTHROMYCIN] |  |  |  |  |  |  |  |  |  |  |  |  |  | MIC [7]: 12.5 µg/mL (≈ 17 µM); MIC [8]: 25 µg/mL (≈ 34.1 µM); MIC [9]: 200 µg/mL (≈ 273 µM); MIC [10]: 32 µg/mL (≈ 43.6 µM) |
| CO[C@H]1CC=C2C(=O)c3c(O)cc(C)c(-c4c(C)cc(O)c5c4O[C@]4(C)C(=CC(=O)[C@H](OC)[C@H]4O)C5=O)c3O[C@@]2(C)[C@@H]1O | 6100 | 12.5 (≈ 21.1 µM) | 4200 | inactive | inactive | > 50 | inactive | inactive | inactive | inactive | 25.5 | 4.9 | 1700 |  |
| CC/C(=C(\c1ccccc1)c1ccc(OCCN(C)C)cc1)c1ccccc1 [TAMOXIFEN] |  |  |  |  |  |  |  |  |  |  | 19.2 |  |  |  |
